Key:
[1] = tested on: fatty acid binding protein 4 (FABP4); assay: RT-qPCR steady-state gene expression in MC3T3-E1 cells: FABP4; format: cell-based, Mus musculus; details: 3 d, GAPDH reference
Procedure: (§1) As indicated, the following polyP preparations are added to the cells; […], et al. […] Retinol is dissolved in ethanol (1 mg/ml) and then diluted in DMSO (dimethyl sulfoxide). Incubation is performed for 3 d. In the indicated experiments, circular fiber mat samples (diameter of 15 mm) are inserted into each 24-well of the plates and seeded with MC3T3-E1 cells at a density of 5·10^3 cells/well. Then the assays are incubated for 3 d and subjected to microscopic as well as polymerase chain reaction analyses. The gene expression levels can be determined by applying the technique of reverse transcription-quantitative real-time polymerase chain reaction (RT-qPCR). […] Then the cells are harvested, their RNA is isolated and subjected to RT-qPCR. In the experiments described under Examples, the following primer pairs, matching with the respective mouse genes, are used: Fatty acid binding protein 4 (Mus musculus; accession number […]299] (SEQ ID NO: 1) and Rev: […]392] (SEQ ID NO: 2); product size 135 bp; leptin (M. musculus; […]2911] (SEQ ID NO: 3) and Rev: […]3019] (SEQ ID NO: 4); size 153 bp; and leptin receptor, transcript variant 2 (M. musculus; […]2592] (SEQ ID NO: 5) and Rev: […]2686] (SEQ ID NO: 6); size 139 bp. The GAPDH [glyceraldehyde 3-phosphate dehydrogenase (Mus GAPDH; NM_008084) is used as reference gene […]220] (SEQ ID NO: 7) and Rev: [NT]338 to nt316; size 139 bp] (SEQ ID NO: 8).

[2] = In vitro incubation of teeth, polyP coating / dentinal tubule resealing (light microscopy, SEM); set-up: species or system human; details: 10 mg/mL; 2 d incubation
Procedure: In order to determine the efficacy of the aCa-polyP-MP to reseal the dentin layer and to check for the potency of the microparticles to occlude the dentinal tubules human teeth are used. Prior to use the teeth are mechanically cleaned from soft tissue, treated for 5 h in 3% Na-hypochlorite to remove tissue remains and then stored at 4° C. in a 100% relative humidity chamber.
Teeth specimens are submersed in saline (0.90% [w/v] NaCl) which contained, as mentioned in the text, either 10 mg/mL of aCa-polyP-MP or Na-polyP, stoichiometrically complexed with Ca^2+ (molar ratio of 2:1/phosphate monomer:Ca^2 [Müller W E G, et al. (2011) Inorganic polymeric phosphate/polyphosphate as an inducer of alkaline phosphatase and a modulator of intracellular Ca^2+ level in osteoblasts (SaOS-2 cells) in vitro. Acta Biomater 7:2661-2671]). Incubation is performed at 25° C. Then the samples are sliced by cutting 1-2 mm thick discs inwards to the pulp as described (Wang X H, et al. (2014) Enzyme-based biosilica and biocalcite: biomaterials for the future in regenerative medicine. Trends Biotechnol 32:441-447); where indicated, the dentin or enamel regions, as well as the cement layer, are included in the measurements. […]

[3] = tested on: MC3T3-E1 cells; assay: Nile Blue A staining of cell monolayers; format: cell-based, mouse; details: 72 h, controls stained in blue
Procedure: (§2) The mouse calvaria cells MC3T3-E1 cells (ATCC-CRL-2593; #99072810; Sigma) are cultivated in a-MEM (Gibco—Invitrogen, Darmstadt; Germany) containing 20% fetal calf serum (FCS; Gibco). In addition, the medium is supplemented with 2 mM L-glutamine, 1 mM Na-pyruvate and 50 μg/ml of gentamycin. […] After reaching 80% confluency, the cells are detached using trypsin/EDTA and then subcultured at a density of 5·10^3 cells/ml. The cells are seeded at a density of 5·10^3 cells/well. Medium/serum change is every 3 d.
(§3) Retinol is dissolved in ethanol (1 mg/ml) and then diluted in DMSO (dimethyl sulfoxide). Incubation is performed for 3 d.
The MC3T3-E1 cells are stained with Nile Blue A (Basic Blue 12, Nile blue sulfate; Sigma N0766) as described (Nakanishi T, Kato S. Impact of diabetes mellitus on myocardial lipid deposition: an autopsy study. Pathol Res Pract 2014; 210: 1018-1025). This staining reagent highlights in histological samples neutral lipids (triglycerides, cholesteryl esters, steroids) in pink, while acids (fatty acids, chromolipids, phospholipids) are stained in blue.

[4] = tested on: MC3T3-E1 cells; assay: XTT cell viability / cell proliferation assay; format: cell-based, mouse
Procedure: as §2, §3
Cell proliferation/cell viability can be determined by the colorimetric XTT method ([Na-3′[1-(phenylamino-carbonyl)-3,4-tetrazolium]-bis(4-methoxy-6-nitro) benzene sulfonic acid] using, for example, the “Cell Proliferation Kit II” (Roche). The absorbance is determined at […] and subtracted from the background values ([…]). In the experiments described in Examples, the viable cells have been determined after 72 h.

[5] = tested on: leptin; assay: RT-qPCR steady-state gene expression in MC3T3-E1 cells: leptin; format: cell-based, Mus musculus; details: 3 d, GAPDH reference
Procedure: as §1

[6] = tested on: leptin receptor; assay: RT-qPCR steady-state gene expression in MC3T3-E1 cells: leptin receptor; format: cell-based, Mus musculus; details: 3 d, GAPDH reference
Procedure: as §1

[7] = tested on: ALP gene; assay: qRT-PCR of ALP expression in hMSC differentiating towards odontoblasts; format: cell-based, human; details: 30 μg/mL, time not stated (1-7 d series), without polyP approximately 0.02
Procedure: The human multipotent stromal cells (hMSC) differentiate into odontoblasts in the presence of conditioned medium from developing tooth germ cells; the conditioned medium is prepared as described (Huo N, et al. (2010) Differentiation of dermal multipotent cells into odontogenic lineage induced by embryonic and neonatal tooth germ cell-conditioned medium. Stem Cells Dev 19:93-104). The description of the cultivation procedure for the hMSCs has been published (Wang X H, et al. (2014) The marine sponge-derived inorganic polymers, biosilica and polyphosphate, as morphogenetically active matrices/scaffolds for differentiation of human multipotent stromal cells: Potential application in 3D printing and distraction osteogenesis. Marine Drugs 12:1131-1147). The human cells can be obtained, after approval from the responsible ethics committee, from bone marrow aspirations after informed consent of the donors. Incubation was performed in a humidified incubator at 37° C. and 5% CO2. The sixth passage is used for the studies. The cells are incubated in α-MEM (Biochrom), supplemented with 20% fetal calf serum (FCS; Gibco Invitrogen) as well as with 100 units/mL penicillin and […] streptomycin. In addition, 5% of conditioned medium is added to the assays. […]

With Na-polyphosphate the “FABP4 steady-state expression versus untreated control” value ([1]; 3 μg/ml, control set to 1) was “did not change significantly”, the “additional (polyP) layer on top of the cement, light microscopy” value [2] was “no additional layer was observed” and the “surface texture / roughness of treated teeth, light microscopy” value [2] was “coarse texture”. The “Nile Blue A staining colour of cells” value ([3]; 3 μg/ml) was “highlight in light/bright pink”, the “number of cells (XTT)” value ([4]; 72 h incubation, below a concentration of 3 μg/ml) was “no effect on the number of cells” and the “leptin steady-state expression versus untreated control” value ([5]; 3 μg/ml, control set to 1) was “did not change significantly”. For the same molecule, the “leptin receptor steady-state expression versus untreated control” value ([6]; 3 μg/ml, control set to 1) was “did not change significantly” and the “ALP expression level, ratio to GAPDH” value [7] was 0.53±0.01.
For `CC1=C(/C=C/C(C)=C/C=C/C(C)=C/CO)C(C)(C)CCC1` [retinol, all-trans retinol], the “FABP4 steady-state expression versus untreated control” value ([1]; 3 μM retinol) was “non-significant increase”, the “Nile Blue A staining colour of cells” value ([3]; 3 μM retinol) was “highlight in light/bright pink” and the “cell growth (XTT)” value ([4]; retinol 3 μM as single component, 72 h) was “does not affect cell growth significantly”. The “leptin steady-state expression versus untreated control” value ([5]; 3 μM retinol) was “non-significant increase” and the “leptin receptor steady-state expression versus untreated control” value ([6]; 3 μM retinol) was “non-significant increase”.

From patent US20170319740A1, “Bioactive Wound Dressing and Teeth Coating Based on Morphogenetically Active Amorphous Calcium Polyphosphate” (NanotecMARIN GmbH, priority 2014, published 2017)
